Data reported in patent US12195427B2, “MASP-2 inhibitors and methods of use” (priority 2018, dated 2025).

What was measured:
MASP-2 CCP2-SP = MASP-2 CCP2-SP (Homo sapiens (Human), UniProt O00187); assay: MASP-2 co-crystallization, X-ray crystallography and structure analysis (H-bonds, van der Waals contacts); set-up: van der Waals contact distance, MASP-2 HIS 483 atom CD2 / van der Waals contact distance, MASP-2 HIS 483 atom NE2 / van der Waals contact distance, SER 654 C to compound atom / van der Waals contact distance, SER 654 O to compound atom / van der Waals contact distance, TRP 655 C to compound atom / van der Waals contact distance, MASP-2 GLY 528 atom CA / van der Waals contact distance TRP 655 atom CZ3 / van der Waals contact distance TRP 655 atom N / van der Waals contact distance TRP 655 atom CE3 / van der Waals contact distance GLY 656 atom C / van der Waals contact distance GLY 656 atom CA / van der Waals contact distance GLY 656 atom O / van der Waals contact distance, MASP-2 TYR 607 atom CD1 / van der Waals contact distance, MASP-2 PRO 606 atom O / d(C3,CA1) / d(CA1,N1)2 / d(H4,O1) / d(H4,O2) / d(O1,O2) / d(CA1,O2) / d(CA6,O1) / d(CA6,O2) / d(CA1,C5) / d(O2,H3) / d(N2,C2) / d(CA5,N2) / d(N2,C4) / d(N2,C6) / d(N2,CA3) / d(N2,O3) / d(O4,H2): unit not given beside the values;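 as to Ligand-pharmacophore element distance, pharmacophore element C2: distance from averaged pharmacophore element to bound ligand; missing value means element absent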;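 as to Ligand-pharmacophore element distance, pharmacophore element C3: distance from averaged pharmacophore element to bound ligand; missing value means element absent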;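 as to Ligand-pharmacophore element distance, pharmacophore element C4: distance from averaged pharmacophore element to bound ligand; missing value means element absent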;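 as to Ligand-pharmacophore element distance, pharmacophore element C5: distance from averaged pharmacophore element to bound ligand; missing value means element absent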
How it was run: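 Soaked crystals of recombinant CCP2-SP (E. coli) yield the structures, phased by molecular replacement on 1Q3X pieces. Hydrophobic or nonbonded contacts can also cover atom pairs that are potential hydrogen bonds.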

Lectin Pathway = Lectin Pathway Activation Assay in Human Serum (mannan-coated ELISA, C3c detection); assay type: biochemical; conditions: 1% human serum
Experimental: Microtiter ELISA plate was coated with mannan from Saccharomyces cerevisiae (Sigma-Aldrich, M7504) for overnight at 4° C. in coating buffer [15 mM Na2CO3, 35 mM NaHCO3].

[1] = Table A5-1 pharmacophore: distance between elements, S2/S1 region
[2] = Table A5-2 pharmacophore distance, S3/S4 region
[3] = Table A7-1, between pharmacophore elements of the bound compound

MASP-2 CCP2-SP, sequence (O00187 445-686): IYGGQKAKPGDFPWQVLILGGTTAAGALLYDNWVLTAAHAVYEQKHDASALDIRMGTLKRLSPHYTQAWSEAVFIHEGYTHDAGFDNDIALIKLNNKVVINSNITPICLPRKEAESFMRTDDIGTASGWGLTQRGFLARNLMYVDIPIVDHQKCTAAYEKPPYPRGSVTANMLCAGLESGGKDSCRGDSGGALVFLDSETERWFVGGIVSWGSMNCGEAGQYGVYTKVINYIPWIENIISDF
MASP-2 CCP2-SP, sequence (O00187 364-432 partner): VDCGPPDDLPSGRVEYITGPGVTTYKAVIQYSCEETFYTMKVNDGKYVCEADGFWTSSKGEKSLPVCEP

## Cc1cc(Cl)cc(CNC(=O)[C@H](C)NC(=O)[C@H]2C[C@H](Cc3ccccc3)CN2)c1O [compound 1307, (2R,4S)-4-Benzyl-N—((S)-1-((5-chloro-2-hydroxy-3-methylbenzyl)amino)-1-oxopropan-2-yl)pyrrolidine-2-carboxamide]
MASP-2 CCP2-SP; Table A1 (H-Bonds), GLY 656 N
  H-bond distance to MASP-2 GLY 656 atom N: 2.95
MASP-2 CCP2-SP; Table A1 (H-Bonds), GLY 656 O
  H-bond distance to MASP-2 GLY 656 atom O: 2.86
MASP-2 CCP2-SP; Table A1 (H-Bonds), SER 654 O
  H-bond distance to MASP-2 SER 654 atom O: 2.91
MASP-2 CCP2-SP; Table A2-1
  van der Waals contact distance, MASP-2 HIS 483 atom NE2: 3.5
MASP-2 CCP2-SP; Table A2-2
  van der Waals contact distance, MASP-2 GLY 528 atom CA: 3.75
MASP-2 CCP2-SP; Table A2-3
  van der Waals contact distance, MASP-2 PHE 529 atom CD2: 3.69
  van der Waals contact distance, MASP-2 PHE 529 atom CZ: 3.86
MASP-2 CCP2-SP; Table A2-4
  van der Waals contact distance, MASP-2 TYR 607 atom CD1: 3.83
MASP-2 CCP2-SP; Table A2-11
  van der Waals contact distance, SER 654 C to compound atom: 3.79
  van der Waals contact distance, VAL 653 CG1 to compound atom: 3.47
MASP-2 CCP2-SP; Table A2-13, MASP-2 TRP 655 CE3, compound atom in line below
  van der Waals contact distance TRP 655 atom CE3: 3.75
MASP-2 CCP2-SP; Table A2-13, MASP-2 TRP 655 CZ3
  van der Waals contact distance TRP 655 atom CZ3: 3.76
MASP-2 CCP2-SP; Table A4-1, element C2
  Ligand-pharmacophore element distance, pharmacophore element C2: 0
MASP-2 CCP2-SP; Table A4-1, element C3
  Ligand-pharmacophore element distance, pharmacophore element C3: 0
MASP-2 CCP2-SP; Table A4-1, element C4
  Ligand-pharmacophore element distance, pharmacophore element C4: 0
MASP-2 CCP2-SP; Table A4-1, element C5
  Ligand-pharmacophore element distance, pharmacophore element C5: 0.37
MASP-2 CCP2-SP; Table A4-1, element C6
  Ligand-pharmacophore element distance, pharmacophore element C6: 0
MASP-2 CCP2-SP; Table A4-1, element C7
  Ligand-pharmacophore element distance, pharmacophore element C7: 0.76
MASP-2 CCP2-SP; Table A4-1, element CA1
  Ligand-pharmacophore element distance, pharmacophore element CA1: 1.55
MASP-2 CCP2-SP; Table A4-1, element CA2
  Ligand-pharmacophore element distance, pharmacophore element CA2: 0.17
MASP-2 CCP2-SP; Table A4-1, element CA3
  Ligand-pharmacophore element distance, pharmacophore element CA3: 0
MASP-2 CCP2-SP; Table A4-1, element CA4
  Ligand-pharmacophore element distance, pharmacophore element CA4: 0
MASP-2 CCP2-SP; Table A4-1, element CA5
  Ligand-pharmacophore element distance, pharmacophore element CA5: 0
MASP-2 CCP2-SP; Table A4-1, element CA6
  Ligand-pharmacophore element distance, pharmacophore element CA6: 0
MASP-2 CCP2-SP; [1]
  d(CA1,C5): 3.13
  d(CA1,O1): 4.60
  d(CA1,O2): 4.57
  d(CA1,O4): 2.74
  d(H4,O1): 3.15
  d(H4,O2): 3.80
  d(O1,O2): 3.17
  d(O4,H2): 0.98
MASP-2 CCP2-SP; [2]
  d(N2,CA2): 6.14
  d(O2,H3): 2.09
  d(O2,N2): 2.81
MASP-2 CCP2-SP; Table A6-1 pharmacophore angle
  a(C5, CA1, O1): 161.35
  a(CA1, O1, O2): 109.57
  a(CA1, O4, H2): 127.11
  a(O1, CA1, C7): 121.00
  a(O1, CA1, O4): 66.49
  a(O1, O2, H4): 126.83
MASP-2 CCP2-SP; Table A6-2 pharmacophore angle
  a(O1, O2, H3): 129.22
  a(O1, O2, N2): 142.81
  a(O2, N2, CA2): 155.37
MASP-2 CCP2-SP; [3]
  Pharmacophore torsion angle a(C5, CA1, O1, H4): −6.78
  Pharmacophore torsion angle a(C7, CA1, O1, H4): −161.01
  Pharmacophore torsion angle a(H4, O1, O2, H3): −163.22
  Pharmacophore torsion angle a(H4, O1, O2, N2): −170.13
  Pharmacophore torsion angle a(O1, H4, O2, CA1): −88.47
MASP-2 CCP2-SP; Table A7-2, between pharmacophore elements of the bound compound
  Pharmacophore torsion angle a(O1, O2, N2, CA2): 138.35
Lectin Pathway
  IC50: 50 to 500 nM
